The values below come from patent US20150232900A1, “PAPER FOLDING METHOD AND DEVICE FOR MANUFACTURING FILTER CARTRIDGES” (MYKO TECH PRIVATE LIMITED, priority 2012, published 2015).

Common to all, as to format: cell-based
Assay [1] concerns Retrovirus XMRV (Xenotropic Murine Leukemia Virus). Put plainly: Focus forming unit (FFU) inhibition assay, Retrovirus XMRV in PG4 cell line. The settings on record: PG4 cells, positive control, tested 0.33-100 μM. How it is done:
EPS from two thraustochytrids designated MT-5 and MT-6 were tested for inhibition of retrovirus A stock solution of 20 mg/ml of the EPS was prepared by solubilizing in 10% DMSO for injection into the cell lines infected by the virus. Various dilutions of the stock EPS were prepared in the tissue culture medium, Dulbecco ? Modified Eagle medium with 2% fetal bovine serum and antibiotics. The dilutions were: (1) 100 ? /ml; (2) 33 ? /ml; 10 ? /ml; (4) 3.3 μg/ml; (5) 1.0 μg/ml; (6) 0.33 μg/ml. A focus forming unit (FFU) inhibition assay in 6-well plates in vitro was carried out. A known concentration of cells from PG4 cell line was used to seed 6-well or 12-well plates for 24 hours. Each of the 6 different concentrations of the EPS was then added to duplicate wells and incubated for 1 hour and then approximately 50-100 focus forming units of the Retrovirus XMRV (Xenotropic Murine Leukemia Virus) in 10 ? were added to each well. Virus was allowed to absorb to the cells for 2 hours. After the incubation the virus was removed and agarose solution with EPS at each different was added to the appropriate infected well Plates were incubated in a 37° C. CO2 incubator for 5 days. The drug Tenofovir was kept as a positive control, at concentrations of 100, 33, 10, 3.3, 1.0 and 0.33 μM concentrations. At the end of incubation, cultures were fixed and stained with crystal violet to visualize the foci. […]

In assay [2] the test system is Human Cytomegalovirus AD-169. Put plainly: Plaque forming unit (PFU) inhibition assay, Human Cytomegalovirus AD-169 in MRC5 cell line. The settings on record: Human Cytomegalovirus AD-169, MRC5 cells, positive control, tested 0.33-100 μM. How it is done:
EPS from the thraustochytrid designated MT-5 were tested for inhibition of Cytomegalovirus. A stock solution of 20 mg/ml of the EPS was prepared by solubilizing in 10% DMSO for injection into the cell lines infected by the virus.
Various dilutions of the stock EPS were prepared in the tissue culture medium, Dulbecco ? Modified Eagle medium with 2% fetal bovine serum and antibiotics. The dilutions were: (1) 100 ? /ml; (2) 33 ? /ml; (3) 10 ? /ml; (4) 3.3 μg/ml; (5) 1.0 ? /ml; (6) 0.33 μg/ml. A plaque forming unit (PFU) inhibition assay in 6-well plates in vitro was carried out. A known concentration of cells from MRC5 cell line was used to seed 6-well or 12-well plates for 24 hours. Each of the 6 different concentrations of the EPS was then added to duplicate wells and incubated for 1 hour and then approximately 50-100 plaque forming units of the Human Cytomegalovirus AD-169 in 10 ? were added to each well. Virus was allowed to absorb to the cells for 2 hours. After the incubation the virus was removed and agarose solution with EPS at each different was added to the appropriate infected well. Plates were incubated in a 37° C. CO2 incubator for 5 days. The drug Acyclovir was kept as a positive control, at concentrations of 100, 33, 10, 3.3, 1.0 and 0.33 μM concentrations. […] Plaques were counted and numbers recorded. […]

For the next assay, the system named is Human Adenovirus 5. Put plainly: Plaque forming unit (PFU) inhibition assay, Human Adenovirus 5 in A549 cell line. To be noted: Human Adenovirus 5, A549 cells, positive control, tested 0.33-100 μM; not at less. How it is done:
EPS from two thraustochytrids, designated MT-5 and MT-6 were tested for inhibition of Adenovirus. A stock solution of 20 mg/ml of the EPS was prepared by solubilizing in 10% DMSO for injection into the cell lines infected by the virus. Various dilutions of the stock EPS were prepared in the tissue culture medium, Dulbecco ? Modified Eagle medium with 2% fetal bovine serum and antibiotics. The dilutions were: (1) 100 μg/ml; (2) 33 μg/ml; (3) 10 μg/ml; (4) 3.3 μg/ml; (5) 1.0 μg/ml; (6) 0.33 μg/ml. A plaque forming unit (PFU) inhibition assay in 6-well plates in vitro was carried out. A known concentration of cells from A549 cell line was used to seed 6-well or 12-well plates for 24 hours. Each of the 6 different concentrations of the EPS was then added to duplicate wells and incubated for 1 hour and then approximately 50-100 plaque forming units of Human Adenovirus 5 in 10 ? were added to each well. Virus was allowed to absorb to the cells for 2 hours. After the incubation the virus was removed and agarose solution with EPS at each different was added to the appropriate infected well. Plates were incubated in a 37° C. CO2 incubator for 5 days. The drug Cidofovir was kept as a positive control, at concentrations of 100, 33, 10, 3.3, 1.0 and 0.33 μM concentrations. […] Plaques were counted and numbers recorded. […]

Where only a bound is given, the exact number is not on record here.

Regarding `C[C@H](Cn1cnc2c(N)ncnc21)OCP(=O)(O)O` [Tenofovir], in assay [1], the “concentration above which the drug was effective (viral foci)” value was more than 10.0 µM and the “concentration that completely inhibited focal formation” value was 100 µM. For `Nc1nc2c(ncn2COCCO)c(=O)[nH]1` [Acyclovir], in assay [2], the “effective concentration (not effective at any concentration tested, up to the maximum)” value was more than 100.0 µM. On to `Nc1ccn(C[C@@H](CO)OCP(=O)(O)O)c(=O)n1` [Cidofovir], for which the “concentration that completely inhibited plaque formation” value in the assay with Human Adenovirus 5 was determined as 100 µM.
